Source: ChEMBL document CHEMBL1201862, “PubChem BioAssay data set” (2004)
Calls of active or inactive are those of the source.

Legend:
[1] = target: Cysteine protease ATG4B (Homo sapiens, UniProt Q9Y4P1); assay type: functional;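 note: Fluorescence-based dose-response confirmation assay measuring inhibition of ATG4B activity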
[2] = target: Phospholipase A2 (Homo sapiens, UniProt P04054); assay type: functional;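 note: confirmatory dose-response counterscreen on phospholipase A2, testing hits that came from an ultra-high-throughput screen for ATG4B inhibitors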
[3] = tested on: CHO; test: cytotoxicity in TLR9-MyD88 CHO cells, dose response, cytotoxicity control for TLR9-MyD88 binding inhibitor project, cell-based, luminescence (AID 588339); assay type: functional, hamster; settings: Cricetulus griseus;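 note: CHO cells stably coexpressing TLR9 and MyD88 fusions from primary screen; compound exposure lasted 48 hours before viability readout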
[4] = target: Heat shock protein HSP 90-alpha (Homo sapiens, UniProt P07900); assay type: functional, organism-based
[5] = target: T1, Beta Lactamase (Pseudomonas aeruginosa, UniProt Q932Y6); test: beta-lactamase reporter inhibitor potency, dose response, artefact control for TLR9-MyD88 binding inhibitor project, BLA reporter cells, FRET fluorescence (AID 588341); assay type: cell-based;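 note: cell based assay in CHO-K1 cells stably expressing beta-lactamase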
[6] = target: Photoreceptor-specific nuclear receptor (Homo sapiens, UniProt Q9Y5X4); assay type: functional, cell-based;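 note: CHO-S cells with Gal4-NCOR and VP16-NR2E3 two-hybrid luciferase reporter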
[7] = tested on: BJ; test: cytotoxicity toward BJ-TERT fibroblasts, dose response, cell-based, RAS-independent, luminescence (AID 1933); assay type: functional; settings: Homo sapiens
[8] = tested on: BJ; test: cells; assay type: functional, cell-based; settings: Homo sapiens
[9] = target: Large T antigen (Simian virus 40, UniProt P03070); assay type: functional, Betapolyomavirus macacae;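 note: Confirmatory-stage PubChem screen for compounds that inhibit SV40 T antigen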
[10] = target: Luciferin 4-monooxygenase (Photinus pyralis, UniProt P08659); test: firefly luciferase enzyme inhibitors, dose response, biochemical, luminescence (AID 1891)
[11] = Luminescence Cell-Based Dose Confirmation HTS to Identify Inhibitors of Platelet Dense Granule Release. [Related pubchem assays: 1663 (Primary HTS), 1678 (Summary of Project)]; assay type: functional
[12] = tested on: BJ; test: cytotoxicity toward BJ-TERT-LT-ST fibroblasts, dose response, cell-based, RAS-independent, luminescence (AID 1935); assay type: functional; settings: Homo sapiens;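 note: BJ fibroblasts immortalized with TERT plus LT and ST oncogenes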
[13] = cytotoxicity toward DRD oncogenic fibroblasts, dose response, cell-based, non-viral oncogenic, luminescence (AID 1934); assay type: functional; settings: Homo sapiens
[14] = target: T2, Replicative DNA helicase DnaB (Mycobacterium tuberculosis, UniProt P9WMR3); test: DnaB intein splicing inhibitors, dose response, biochemical, cell-free fluorescence (AID 449749); assay type: functional
T2 sequence (P9WMR3 whole entry): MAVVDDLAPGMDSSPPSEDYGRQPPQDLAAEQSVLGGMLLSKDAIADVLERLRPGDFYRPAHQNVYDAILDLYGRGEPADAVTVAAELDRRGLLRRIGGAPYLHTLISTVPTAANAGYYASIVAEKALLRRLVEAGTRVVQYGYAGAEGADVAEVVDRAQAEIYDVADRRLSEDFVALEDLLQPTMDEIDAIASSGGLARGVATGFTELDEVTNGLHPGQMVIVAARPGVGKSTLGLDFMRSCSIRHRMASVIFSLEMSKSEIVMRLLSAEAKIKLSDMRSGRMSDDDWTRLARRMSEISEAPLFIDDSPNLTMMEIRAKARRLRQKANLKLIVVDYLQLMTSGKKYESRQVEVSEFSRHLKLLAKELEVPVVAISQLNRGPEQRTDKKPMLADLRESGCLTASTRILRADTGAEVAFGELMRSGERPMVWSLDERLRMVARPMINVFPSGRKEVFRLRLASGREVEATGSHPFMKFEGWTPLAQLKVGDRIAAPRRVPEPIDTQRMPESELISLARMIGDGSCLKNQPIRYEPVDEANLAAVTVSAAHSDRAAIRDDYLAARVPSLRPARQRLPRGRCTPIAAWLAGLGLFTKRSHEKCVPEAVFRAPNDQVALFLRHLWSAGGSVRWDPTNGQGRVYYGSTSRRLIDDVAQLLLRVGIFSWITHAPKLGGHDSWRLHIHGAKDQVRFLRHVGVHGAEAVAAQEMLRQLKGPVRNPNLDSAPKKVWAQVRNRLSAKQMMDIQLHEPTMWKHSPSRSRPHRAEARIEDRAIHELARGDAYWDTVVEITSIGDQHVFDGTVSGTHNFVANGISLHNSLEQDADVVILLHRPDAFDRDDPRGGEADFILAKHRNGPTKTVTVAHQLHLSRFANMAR

[15] = tested on: Vero; test: Vero cell cytotoxicity, cytotoxicity control for flavivirus capping enzyme inhibitors (AID 588742); assay type: functional; settings: Chlorocebus sabaeus
[16] = tested on: BJ; test: cytotoxicity toward Ras-transformed BJeLR fibroblasts, dose response, cell-based, alamar blue fluorescence, cherrypicked samples (AID 2631); assay type: functional; settings: Homo sapiens;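 note: confirmatory dose-response assay in RAS-dependent BJ fibroblasts engineered with TERT, LT and ST, with cytotoxicity read by fluorescence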
[17] = target: T3, Protein RecA (Mycobacterium tuberculosis, UniProt P9WHJ3); test: Fluorescence Cell-Free Homogeneous Dose Retest to Identify Inhibitors of RecA-Intein Splicing Activity. [Related pubchem assays (depositor defined):AID2097, AID2223, AID489010, AID492950]; assay type: functional
T3 sequence (P9WHJ3 whole entry): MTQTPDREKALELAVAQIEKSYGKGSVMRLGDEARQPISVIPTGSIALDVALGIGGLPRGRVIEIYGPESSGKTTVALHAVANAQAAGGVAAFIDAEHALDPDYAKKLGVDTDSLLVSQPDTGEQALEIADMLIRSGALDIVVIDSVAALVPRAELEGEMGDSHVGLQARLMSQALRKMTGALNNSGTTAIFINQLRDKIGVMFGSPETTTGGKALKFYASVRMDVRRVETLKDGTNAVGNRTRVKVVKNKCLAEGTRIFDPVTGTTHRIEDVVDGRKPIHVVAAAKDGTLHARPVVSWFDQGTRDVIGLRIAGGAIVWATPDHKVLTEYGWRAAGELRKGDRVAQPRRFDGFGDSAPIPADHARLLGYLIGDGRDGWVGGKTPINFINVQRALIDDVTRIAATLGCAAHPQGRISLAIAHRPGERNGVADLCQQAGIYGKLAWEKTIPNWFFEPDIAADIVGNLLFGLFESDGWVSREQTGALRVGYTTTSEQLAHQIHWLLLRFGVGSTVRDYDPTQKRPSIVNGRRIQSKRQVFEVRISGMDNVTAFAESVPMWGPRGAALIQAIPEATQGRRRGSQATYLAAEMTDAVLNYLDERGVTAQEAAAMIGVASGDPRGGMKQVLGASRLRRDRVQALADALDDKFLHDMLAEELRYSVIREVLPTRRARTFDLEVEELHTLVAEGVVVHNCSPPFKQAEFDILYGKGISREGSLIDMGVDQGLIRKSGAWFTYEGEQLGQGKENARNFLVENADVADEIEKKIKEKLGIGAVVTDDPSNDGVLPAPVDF

[18] = tested on: INS1; test: beta cell apoptosis inhibitors, cytokine rescue, dose response, luminescence, retest (AID 449756); assay type: functional, cell-based; settings: Rattus norvegicus;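 note: cell death triggered by IL-1 beta plus TNF-alpha plus IFN-gamma mixture; protective hits raise ATP signal compared with cytokine alone wells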
[19] = target: Genome polyprotein (dengue virus type 2, UniProt P29990); test: Dengue-2 NS5 methyltransferase inhibitors, primary screen, biochemical, confirmation dose response (AID 588689); assay type: functional
[20] = Fluorescence-based cell-based high throughput dose response assay for inhibitors of the interaction of nucleotide-binding oligomerization domain containing 2 (NOD2) and the receptor-interacting serine-threonine kinase 2 (RIPK2).; assay type: functional; settings: Homo sapiens
[21] = target: T1, Beta Lactamase; test: beta-lactamase reporter inhibitor potency, dose response, artefact control for NOD2-RIPK2 interaction inhibitor project, BLA reporter cells, FRET fluorescence (AID 651552); assay type: functional, cell-based
[22] = target: T4, Fatty acid synthase (Homo sapiens, UniProt P49327); test: FAS thioesterase domain inhibitors, dose response, biochemical, endpoint fluorescence intensity, uHTS hits (AID 624327); assay type: functional;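 note: fluorescence from hydrolysis of an O-methyl fluorescein acyl ester substrate by the enzyme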
[23] = target: T4, Fatty acid synthase; test: FAS thioesterase domain inhibitors, dose response, biochemical, kinetic fluorescence intensity (AID 624326); assay type: functional;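 note: rate of fluorescence rise from hydrolysis of a fluorogenic O-methyl fluorescein ester substrate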
[24] = inhibitors of firefly luciferase expression or activity, dose response, H4 neuroglioma cells, luminescence (AID 1990); assay type: functional, cell-based
[25] = Luminescence Cell-Based Dose Response HTS to Identify Inhibitors of 5'UTR Stem-Loop Driven Prion Protein mRNA Translation in H4 Neuroglioblastoma Cells. [Related pubchem assays: 1827 (Project Summary), 1813 (Primary HTS)]; assay type: functional
[26] = inhibitors of SNCA 5'UTR-driven reporter translation, confirmation, H4 neuroglioma cells, luminescence (AID 1988); assay type: functional, cell-based
[27] = target: T5, E3 ubiquitin-protein ligase XIAP (Homo sapiens, UniProt P98170); test: Counter Screen using XIAP-Bir3 for Chemical Antagonists of Bir1/2 domains of IAP-family anti-apoptotic proteins. [Related pubchem assays (depositor defined):AID1018, AID1449, AID1514, AID1638, AID1749, AID1750, AID488957, AID488963]
[28] = target: T5, E3 ubiquitin-protein ligase XIAP; test: XIAP antagonists, biochemical, IAP family, fluorescence polarization (AID 1018); assay type: functional
[29] = target: T6, Microphthalmia-associated transcription factor (Homo sapiens, UniProt O75030); test: TRPM1 promoter luciferase signal decrease, dose response, MITF inhibitor project, cell-based, SK-MEL-5, cherry-picked, set 3 (AID 493073); assay type: functional
T6 sequence (O75030 whole entry): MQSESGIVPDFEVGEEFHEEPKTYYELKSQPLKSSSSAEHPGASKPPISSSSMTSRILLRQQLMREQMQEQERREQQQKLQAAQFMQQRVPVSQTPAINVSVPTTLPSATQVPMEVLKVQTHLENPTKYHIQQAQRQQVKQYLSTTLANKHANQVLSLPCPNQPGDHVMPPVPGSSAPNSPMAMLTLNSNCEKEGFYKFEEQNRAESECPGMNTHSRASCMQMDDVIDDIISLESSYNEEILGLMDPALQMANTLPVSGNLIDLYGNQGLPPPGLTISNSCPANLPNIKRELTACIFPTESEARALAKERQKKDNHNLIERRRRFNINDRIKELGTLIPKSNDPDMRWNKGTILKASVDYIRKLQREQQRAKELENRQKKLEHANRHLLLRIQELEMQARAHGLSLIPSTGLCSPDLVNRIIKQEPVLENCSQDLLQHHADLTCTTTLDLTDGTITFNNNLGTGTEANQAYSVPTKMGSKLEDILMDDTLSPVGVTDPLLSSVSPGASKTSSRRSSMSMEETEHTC

[30] = cytotoxicity in HEK-293T cells, dose response, cytotoxicity control for BCR NF-kB inhibitor project, luminescence, B-cell screen hits (AID 489021); assay type: functional, cell-based;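 note: HEK-293T cells carrying an NF-kB luciferase reporter; cells exposed to compound for about 14 hours before viability readout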
[31] = tested on: HEK293; test: cytotoxicity in HEK293T NF-kB-Luc cells, SAR follow-up, cytotoxicity control for NF-kB activator project, cell-based, resazurin fluorescence (AID 493251); assay type: functional; settings: Homo sapiens
[32] = growth suppression of PTEN-null colon cells, dose response, cell-based, HCT116 PTEN knockout (AID 1047); assay type: functional;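 note: HCT116 colon tumor cells with PTEN knocked out; cells exposed to compound for 60 hours before readout; potency for loss of cell viability measured by luminescence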
[33] = growth suppression of beta-catenin-knockout colon cells, dose response, cell-based, HCT116, human colon tumor (AID 1045); assay type: functional;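 note: HCT116 colon tumor cells with beta catenin knocked out; cells exposed to compound for 60 hours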
[34] = target: T7, Orexin receptor type 2 (Homo sapiens, UniProt O43614); test: Counterscreen assay for antagonists of the orexin 1 receptor (OX1R; HCRTR1): Fluorescence-based cell-based dose response assay for antagonists of the orexin 2 receptor (OX2R; HCRTR2), run by assay provider.; assay type: functional
T7 sequence (O43614 whole entry): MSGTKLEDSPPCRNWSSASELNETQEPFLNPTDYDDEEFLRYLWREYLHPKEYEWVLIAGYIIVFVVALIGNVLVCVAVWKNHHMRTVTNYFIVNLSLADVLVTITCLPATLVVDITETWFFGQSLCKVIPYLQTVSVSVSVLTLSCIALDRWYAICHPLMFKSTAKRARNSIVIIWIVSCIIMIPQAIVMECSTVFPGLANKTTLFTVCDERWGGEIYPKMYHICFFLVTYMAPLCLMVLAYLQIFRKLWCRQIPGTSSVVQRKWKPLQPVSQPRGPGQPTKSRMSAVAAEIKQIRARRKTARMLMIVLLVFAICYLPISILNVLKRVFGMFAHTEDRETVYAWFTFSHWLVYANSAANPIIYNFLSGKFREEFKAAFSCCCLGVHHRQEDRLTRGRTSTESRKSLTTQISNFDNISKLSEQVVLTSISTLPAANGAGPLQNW

[35] = target: T7, Orexin receptor type 2; test: Counterscreen assay for antagonists of the orexin 1 receptor (OX1R; HCRTR1): Homogeneous Time Resolved Fluorescence (HTRF)-based cell-based dose response assay for antagonists of the orexin 2 receptor (OX2R; HCRTR2), run by assay provider.; assay type: functional
[36] = target: Troponin, cardiac muscle (Homo sapiens, UniProt P19429+P45379+P63316); test: Fluorescence-based biochemical high throughput dose response assay for activators of the calcium sensitivity of cardiac Regulated Thin Filaments (RTF). [Related pubchem assays (depositor defined):AID493008, AID493018, AID504382, AID504383]; assay type: protein-complex assay

Cc1sc(NC(=O)c2ccccc2)c(C(=O)c2ccccc2)c1C
active: IC50 [1] 15.3 µM | IC50 [2] 9.18 µM

O=c1c(Br)ccc(Br)cc1Br
active: IC50 [3] 0.558 µM | AC50 [4] 0.438 µM | IC50 [5] 6.14 µM | IC50 [6] 3.72 µM

O=[N+]([O-])c1c(Nc2ccc(O)cc2)cc(Cl)c2nonc12
inconclusive: EC50 [7] 1.92 µM | EC50 [8] 5.3 µM | EC50 [12] 3.96 µM
active: IC50 [9] 12.3 µM | EC50 [11] 4.2 µM | EC50 [13] 2.66 µM | IC50 [3] 1.13 µM | AC50 [14] 1.1 µM | CC50 [15] 16.9 µM | EC50 [16] 0.501 µM | EC50 [17] 0.926 µM | IC50 [5] 6.38 µM | AC50 [18] 5.23 µM | IC50 [19] 10.4 µM | IC50 [20] 0.969 µM | IC50 [21] 5.98 µM | IC50 [22] 5.26 µM | IC50 [23] 4.41 µM
> 112 µM (not active): EC50 [10]

CCOc1ccc(-c2noc(CCC(=O)O)n2)cc1
active: EC50 [24] 6.28 µM | EC50 [25] 15 µM | EC50 [26] 7.97 µM | AC50 [29] 2.61 µM
inactive: IC50 [27] > 100 µM | IC50 [30] > 80 µM | IC50 [31] > 80 µM
> 100 µM (not active): IC50 [28]

O=C(c1ccco1)N1CCCC(c2nc(-c3ccc(S(=O)(=O)NCc4ccccc4)cc3)no2)C1 (stereo not given)
active: EC50 [32] 21.2 µM | EC50 [33] 18.6 µM | IC50 [35] 5.51 µM
inactive: IC50 [34] 39.3 µM

Fc1ccc(CN=C(S)NCc2ccc(F)cc2)cc1
active: IC50 [1] 12.3 µM | IC50 [2] 9.33 µM
inactive: EC50 [36] > 71.5 µM
